Data as given in patent publication US11136347B2, “Crystalline forms of a fatty acid bile acid conjugate, preparation method thereof and use thereof” (Crystal Pharmaceutical (Suzhou) Co., Ltd., priority 2017, dated 2021).

Columns and labels:
Assay type in all cases: physicochemical
[1] = Particle size distribution (Microtrac S3500 laser particle size analyzer, wet mode); settings: after ultrasonication for 30 seconds, dispersion medium Isopar G
Procedure: The particle size distribution data in the present disclosure were acquired by an S3500 laser particle size analyzer of Microtrac. Microtrac S3500 is equipped with an SDC (Sample Delivery Controller). The test was carried out in wet mode, and the dispersion medium is Isopar G. The parameters are as follows:
(§1) The particle size distribution of Form CS3 and the solid disclosed in CN100386339C were tested after ultrasonication for 30 seconds. The average particle size of Form CS3 is 26.3 μm, and D90 is 62.8 μm. The average particle size and D90 of the solid disclosed in prior art are 452.5 μm and 870.3 μm. Compared with prior art, Form CS3 has smaller particle size, which increases the specific surface area of the drug substance, improves the dissolution rate of drug, thereby facilitating drug absorption and further improving the bioavailability of the drug.
as §1, with “Form CS2” for “Form CS3”, “seconds. An” for “seconds. The”, “is 41.9” for “is 26.3”, “is 87.5 μm, while the” for “is 62.8 μm. The”

[2] = Stability study: storage in open dishes, crystalline form checked by XRPD; settings: for Form change: XRPD
Procedure: Solid samples of Form CS3 were stored under different conditions of 25° C./60% RH and 40° C./75% RH in open dishes for one year. Crystalline form was checked by XRPD.
Form CS8 were stored in open dishes under 25° C./60% RH, 40° C./75% RH and 60° C./75% RH conditions for three weeks, and sampled for XRPD test.

[3] = Hygroscopicity study by dynamic vapor sorption (DVS); settings: for The definition of hygroscopicity: Chinese Pharmacopoeia 2015 edition, 25° C. +/−1° C.; for The definition of hygroscopicity / Weight gain under 80% Relative Humidity: 80% RH; for Weight gain under 80% Relative Humidity: DVS
Procedure: Dynamic vapor sorption (DVS) was applied to test hygroscopicity of Form CS3 and the solid disclosed in CN100386339C with about 15 mg of samples. […] DVS plot of test hygroscopicity of Form CS3 is depicted in FIG. 1G. What's more, the crystalline form of Form CS3 didn't change after DVS test, which is depicted in FIG. 1H.
(§2) Dynamic vapor sorption (DVS) was applied to test hygroscopicity of Form CS2 with about 10 mg of samples. […] As depicted in FIG. 1I, weight gain of the solid disclosed in prior art under 80% RH is 2.44%. The hygroscopicity of Form CS2 is lower than that of prior art.
Dynamic vapor sorption (DVS) was applied to test hygroscopicity of Form CS5 with about 8 mg of samples. […] As depicted in FIG. 1I, weight gain of the solid disclosed in prior art under 80% RH is 2.44%. The hygroscopicity of Form CS5 is lower than that of prior art.
as §2, with “CS8” for “CS2”, “7” for “10”, “sample.” for “samples.”, “art. […] The XRPD patterns before and after DVS were shown in FIG. 4F, top: the XRPD pattern before DVS; bottom: XRPD pattern after DVS.” for “art.”

[4] = listed as solid disclosed in prior art

D10 [1] [μm]	D50 [1] [μm]	D90 [1] [μm]	MV (average particle diameter calculated by volume) [1] [μm]	Time for which the crystalline form doesn't change (stable) ([2]; 25° C./60% RH)	Time for which the crystalline form doesn't change (stable) ([2]; 40° C./75% RH)	Time for which the crystalline form doesn't change (stable) ([2]; 60° C./75% RH)	Weight gain under 80% Relative Humidity [3] [%]	Form change before and after DVS test (XRPD) [3]	Compound	The definition of hygroscopicity [3]	also measured
9.7	27.9	87.5	41.9	at least 3 weeks	at least 3 weeks	at least 3 weeks	0.46	No form change	CCCCCCCCCCCCCCCCCCCC(=O)N[C@H]1CC[C@@]2(C)[C@@H](C1)C[C@@H](O)[C@@H]1[C@@H]2C[C@H](O)[C@]2(C)[C@@H]([C@H](C)CCC(=O)O)CC[C@@H]12 [Form CS2, 3β-arachidylamido-7α,12α-dihydroxy-5β-cholan-24-oic acid]	slightly hygroscopic (Increase in mass is less than 2 percent and equal to or greater than 0.2 percent)	
2.0	12.3	62.8	26.3	at least 3 weeks	at least 3 weeks	at least 3 weeks	0.15	didn't change	CCCCCCCCCCCCCCCCCCCC(=O)N[C@H]1CC[C@@]2(C)[C@@H](C1)C[C@@H](O)[C@@H]1[C@@H]2C[C@H](O)[C@]2(C)[C@@H]([C@H](C)CCC(=O)O)CC[C@@H]12 [Form CS3, 3β-arachidylamido-7α,12α-dihydroxy-5β-cholan-24-oic acid]		Form change ([2]; 25° C./60% RH, one year): No form change; Form change ([2]; 40° C./75% RH, one year): No form change
			75.6	at least 3 weeks	at least 3 weeks	at least 3 weeks	0.35	No form change	CCCCCCCCCCCCCCCCCCCC(=O)N[C@H]1CC[C@@]2(C)[C@@H](C1)C[C@@H](O)[C@@H]1[C@@H]2C[C@H](O)[C@]2(C)[C@@H]([C@H](C)CCC(=O)O)CC[C@@H]12 [Form CS5, 3β-arachidylamido-7α,12α-dihydroxy-5β-cholan-24-oic acid]	slightly hygroscopic (Increase in mass is less than 2 percent and equal to or greater than 0.2 percent)	
							0.40	No form change	CCCCCCCCCCCCCCCCCCCC(=O)N[C@H]1CC[C@@]2(C)[C@@H](C1)C[C@@H](O)[C@@H]1[C@@H]2C[C@H](O)[C@]2(C)[C@@H]([C@H](C)CCC(=O)O)CC[C@@H]12 [Form CS8, 3β-arachidylamido-7α,12α-dihydroxy-5β-cholan-24-oic acid]		Form change ([2]; 25° C./60% RH, three weeks): no form change; Form change ([2]; 40° C./75% RH, three weeks): no form change; Form change ([2]; 60° C./75% RH, three weeks): no form change
95.0	398.8	870.3	452.5				2.44		CCCCCCCCCCCCCCCCCCCC(=O)N[C@H]1CC[C@@]2(C)[C@@H](C1)C[C@@H](O)[C@@H]1[C@@H]2C[C@H](O)[C@]2(C)[C@@H]([C@H](C)CCC(=O)O)CC[C@@H]12 [Solid disclosed in CN100386339C, 3β-arachidylamido-7α,12α-dihydroxy-5β-cholan-24-oic acid, reference compound]		D90 ([1]; listed as prior art): 870.3 μm; MV (average particle diameter calculated by volume) ([1]; listed as prior art): 452.5 μm; D90 [1, 4]: 870.3 μm; MV (average particle diameter calculated by volume) [1, 4]: 452.5 μm; The definition of hygroscopicity [3, 4]: hygroscopic (Increase in mass is less than 15 percent and equal to or greater than 2 percent); Weight gain under 80% Relative Humidity ([3]; listed as amorphous solid): 2.44%; Weight gain under 80% Relative Humidity [3, 4]: 2.44%; Weight gain under 80% Relative Humidity ([3]; listed as solid of prior art): 2.44%
